IC50 data for seven compounds are collected here from patent publication US10017523B2, “NAMPT inhibitors and methods” (Genzyme Corporation, priority 2014, dated 2018).

The subject of assay [1] is B-cell acute lymphocytic leukemia (NALM6). Put plainly: Anti-proliferative activity on NALM6 cell line. Type of assay: cell-based. The settings on record: Homo sapiens, NALM-6, 72 h, CellTiterGlo. As for the experimental part: (§1) Leukemia/Lymphoma cell lines (ATCC) were diluted in vendor-recommended media and incubated in the absence or presence of inhibitor for 72 hours at 37° C./5% CO2 prior to viability determination using CellTiterGlo (Promega) per manufacturer's instruction. The human cell lines studied include acute T-cell leukemia (JURKAT), chronic myelogenous leukemia (K562), and B-cell acute lymphocytic leukemia (NALM6 and SUP-B15).
In general terms: In ATP-based viability assays light output follows the ATP content of the culture.

The subject of assay [2] is primary human T cells. Put plainly: Anti-proliferative activity on T cells (CD3/CD28 stimulated, CellTiterGlo). The settings on record: T-cell, 72 h, CD3/CD28 beads. Type of assay: cell-based. The method, then:
Fresh primary human T cells obtained from Analytical Biological Services (Wilmington, Del.) were diluted to 1×10^^6 cells per ml in AIM-V medium (Invitrogen), and stimulated with CD3/CD28 beads (Invitrogen) in the absence or presence of inhibitor for 72 hours at 37° C./5% CO2 prior to viability determination using CellTiterGlo (Promega) per manufacturer's instruction.
(§2) The 50% inhibitory concentration (IC50) is the concentration at which 50% of the maximal activity was inhibited.

Assay [3] concerns chronic myelogenous leukemia (K562). Put plainly: Anti-proliferative activity on K562 cell line. Format: cell-based. The settings on record: Homo sapiens, K562, 72 h, CellTiterGlo. As for the experimental part: as §1
Assay [4] concerns primary human B cells. Put plainly: Anti-proliferative activity on B cells (anti-IgM stimulated, CellTiterGlo). Type of assay: cell-based. The settings on record: B-cell, 72 h, anti-IgM 10 ug/ml. As for the experimental part:
Fresh primary human B cells obtained from Analytical Biological Services (Wilmington, Del.) were diluted to 1×10^^6 cells per ml in AIM-V medium (Invitrogen), and stimulated with anti-IgM (10 ug/ml) (KPL) in the absence or presence of inhibitor for 72 hours at 37° C./5% CO2 prior to viability determination using CellTiterGlo (Promega) per manufacturer's instruction.
as §2

The subject of assay [5] is acute T-cell leukemia (JURKAT). Put plainly: Anti-proliferative activity on JURKAT cell line. Type of assay: cell-based. The settings on record: Homo sapiens, 72 h, CellTiterGlo. As for the experimental part: as §1
Assay [6] concerns the target T1, Recombinant NAMPT enzyme (Homo sapiens, UniProt P43490).
T1 construct: purchased MBL
Put plainly: Inhibition of NAMPT enzymatic activity. Format: biochemical. Particulars: 6 hours at 37° C., NMN product detected. As for the experimental part:
Recombinant NAMPT enzyme (MBL) was briefly pre-incubated in the absence or presence of inhibitor followed by addition of nicotinamide. Enzymatic reaction was allowed to proceed for 6 hours at 37° C. Reaction was terminated and NMN reaction product detected using the method as described in: Zhang R Y, Qin Y, Lv X Q, Wang P, Xu T Y, Zhang L, Miao C Y., Anal. Biochem. 2011 May 1; 412(1):18-25.
as §2

Assay [7] relates to B-cell acute lymphocytic leukemia (SUP-B15). Put plainly: Anti-proliferative activity on SUP-B15 cell line. Type of assay: cell-based. The settings on record: Homo sapiens, SUP-B15, 72 h, CellTiterGlo. As for the experimental part: as §1

T1 sequence (P43490 whole entry): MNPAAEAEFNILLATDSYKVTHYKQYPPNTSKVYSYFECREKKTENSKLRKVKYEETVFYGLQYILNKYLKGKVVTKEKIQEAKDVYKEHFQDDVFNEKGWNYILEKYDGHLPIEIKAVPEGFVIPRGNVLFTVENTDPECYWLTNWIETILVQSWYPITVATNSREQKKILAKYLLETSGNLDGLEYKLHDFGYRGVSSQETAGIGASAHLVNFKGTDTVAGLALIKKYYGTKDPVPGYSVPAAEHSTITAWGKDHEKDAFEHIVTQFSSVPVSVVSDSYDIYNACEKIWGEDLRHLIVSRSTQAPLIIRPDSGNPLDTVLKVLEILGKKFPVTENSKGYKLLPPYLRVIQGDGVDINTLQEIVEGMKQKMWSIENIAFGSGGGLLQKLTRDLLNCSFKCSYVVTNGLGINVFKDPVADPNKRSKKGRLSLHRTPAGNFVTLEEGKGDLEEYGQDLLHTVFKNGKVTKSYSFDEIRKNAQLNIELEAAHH

Usually IC50 stands for the concentration that inhibits the measured activity by half. As to `CC(C)N1CCC2(CC1)Oc1ccc(-c3ccc(C(=O)CCc4cncs4)cc3)cc1C(=O)N2C` [1′-isopropyl-3-methyl-6-(4-(3-(thiazol-5-yl)propanoyl)phenyl)spiro[benzo[e][1,3]oxazine-2,4′-piperidin]-4(3H)-one], the IC50 in assay [1] was 18.6 nM; in assay [2] it was 3190 nM; in assay [3], 112 nM; in assay [4], 40.8 nM; in assay [5], 34.7 nM; in assay [6], 166 nM. This compound yielded an IC50 in assay [7] of 2.85 nM.

Take `Cc1ccc(CNC(=O)c2ccc(-c3ccc4c(c3)C(=O)CC3(CCN(C(C)C)CC3)O4)c(F)c2)cn1` [3-fluoro-4-(1′-isopropyl-4-oxospiro[chroman-2,4′-piperidin]-6-yl)-N-((6-methylpyridin-3-yl)methyl)benzamide]: the IC50 in assay [1] was determined as 10.7 nM; in assay [2] it was 8510 nM; in assay [3], 1730 nM; in assay [4], 53.9 nM; in assay [5], 21.3 nM; in assay [6], 2 nM. The IC50 in assay [7] is 2.22 nM.

For `O=C(NCc1cncc(F)c1)c1ccc(-c2ccc3c(n2)C(=O)CC2(CCN(CC4CCC4)CC2)O3)cc1` [4-(1-(cyclobutylmethyl)-4′-oxo-3′,4′-dihydrospiro[piperidine-4,2′-pyrano[3,2-b]pyridin]-6′-yl)-N-((5-fluoropyridin-3-yl)methyl)benzamide], the IC50 in assay [1] is 48.9 nM; in assay [2] it was 3990 nM; in assay [3], 332 nM; in assay [4], 83 nM; in assay [5], 154 nM; in assay [6], 66.4 nM. This compound also came in with an IC50 in assay [7] of 7.29 nM.

Regarding `Cc1ccc(CNC(=O)c2ccc(-c3ccc4c(c3)C(=O)N(C)C3(CCN(C(C)C)CC3)O4)cc2)cn1` [4-(1′-isopropyl-3-methyl-4-oxo-3,4-dihydrospiro[benzo[e][1,3]oxazine-2,4′-piperidin]-6-yl)-N-((6-methylpyridin-3-yl)methyl)benzamide], the 50% inhibitory concentration (IC50) in assay [1] was 5.26 nM; in assay [2], 4620 nM; in assay [3] it was 28.3 nM; in assay [4] it was 15.3 nM; in assay [5], 7.67 nM; in assay [6] it was 2 nM. Also, 0.663 nM corresponded to half-maximal inhibition in assay [7] (IC50).

As for `Cc1cc(CNC(=O)c2ccc(-c3ccc4c(c3)C(=O)CC3(CCN(C(C)C)CC3)O4)cc2)no1` [4-(1′-isopropyl-4-oxospiro[chroman-2,4′-piperidin]-6-yl)-N-((5-methylisoxazol-3-yl)methyl)benzamide], the IC50 in assay [1] turned out to be 2.69 nM; in assay [2] it was 3240 nM; in assay [3], 63.6 nM; in assay [4], 11.3 nM; in assay [5], 10.7 nM; in assay [6] it was 1 nM. In assay [7], this compound yielded an IC50 of 1.17 nM.

`COCCCN1CCC2(CC1)CC(=O)c1cc(-c3ccc(C(=O)NCc4cncs4)cn3)ccc1O2` [6-(1′-(3-methoxypropyl)-4-oxospiro[chroman-2,4′-piperidin]-6-yl)-N-(thiazol-5-ylmethyl)nicotinamide]: the IC50 in assay [1] is 9.38 nM; in assay [2], 3290 nM; in assay [3], 54.4 nM; in assay [4], 43.8 nM; in assay [5], 19.6 nM; in assay [6], 141 nM. In assay [7], this compound showed an IC50 of 1.83 nM.

As for `COCCCN1CCC2(C=Cc3cc(-c4ccc(C(=O)NCc5cncs5)cn4)ccc3O2)CC1` [6-(1′-(3-methoxypropyl)spiro[chromene-2,4′-piperidin]-6-yl)-N-(thiazol-5-ylmethyl)nicotinamide], the IC50 in assay [1] was 13.9 nM; in assay [2], 5790 nM; in assay [3], 85.8 nM; in assay [4], 45.5 nM; in assay [6], 56.4 nM; in assay [7], 1.7 nM.
